Experimental data as given in PubChem BioAssay (NCI).
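Exposure lasted 48 hours, with cells grown in 96-well plates and compounds tested at five concentrations. At the GI50, growth is halved. Definition used: TGI = concentration required for complete inhibition of growth.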

Legend:
Assay in all cases: inhibition of tumour cell growth, NCI panel, 48 h
BT-549 breast = test system: BT-549 breast
MOLT-4 leukemia = test system: MOLT-4 leukemia
A549 NSCLC = test system: A549 NSCLC
UACC-62 melanoma = test system: UACC-62 melanoma
SNB-75 CNS = test system: SNB-75 CNS
HS 578T breast = test system: HS 578T breast
SNB-19 CNS = test system: SNB-19 CNS
U251 CNS = test system: U251 CNS
SN12C renal = test system: SN12C renal
SK-MEL-5 melanoma = test system: SK-MEL-5 melanoma
OVCAR-4 ovarian = test system: OVCAR-4 ovarian
NCI-H226 lung = test system: NCI-H226 lung
HCC-2998 colon = test system: HCC-2998 colon
OVCAR-3 ovarian = test system: OVCAR-3 ovarian
SK-MEL-2 melanoma = test system: SK-MEL-2 melanoma
SF-268 CNS = test system: SF-268 CNS
HCT-15 colon = test system: HCT-15 colon
CAKI-1 renal = test system: CAKI-1 renal
RPMI-8226 leukemia = test system: RPMI-8226 leukemia
EKVX NSCLC = test system: EKVX NSCLC
SK-MEL-28 melanoma = test system: SK-MEL-28 melanoma
MDA-MB-231 breast = test system: MDA-MB-231 breast
COLO 205 colon = test system: COLO 205 colon
HCT-116 colon = test system: HCT-116 colon
M14 melanoma = test system: M14 melanoma
HT29 colon = test system: HT29 colon
NCI-H23 lung = test system: NCI-H23 lung
SK-OV-3 ovarian = test system: SK-OV-3 ovarian
NCI-H522 lung = test system: NCI-H522 lung
786-0 renal = test system: 786-0 renal
SR leukemia = test system: SR leukemia
DU-145 prostate = test system: DU-145 prostate
ACHN renal = test system: ACHN renal
K-562 leukemia = test system: K-562 leukemia
PC-3 prostate = test system: PC-3 prostate
UO-31 renal = test system: UO-31 renal
IGROV1 ovarian = test system: IGROV1 ovarian
OVCAR-8 ovarian = test system: OVCAR-8 ovarian
MCF7 breast = test system: MCF7 breast
HL-60(TB) leukemia = test system: HL-60(TB) leukemia
OVCAR-5 ovarian = test system: OVCAR-5 ovarian
SF-295 CNS = test system: SF-295 CNS
HOP-62 NSCLC = test system: HOP-62 NSCLC
UACC-257 melanoma = test system: UACC-257 melanoma
NCI-H460 lung = test system: NCI-H460 lung
NCI/ADR-RES ovarian = test system: NCI/ADR-RES ovarian
HOP-92 NSCLC = test system: HOP-92 NSCLC
SF-539 CNS = test system: SF-539 CNS
CCRF-CEM leukemia = test system: CCRF-CEM leukemia
TK-10 renal = test system: TK-10 renal
LOX IMVI melanoma = test system: LOX IMVI melanoma
RXF 393 renal = test system: RXF 393 renal
SW-620 colon = test system: SW-620 colon
MALME-3M melanoma = test system: MALME-3M melanoma
MDA-MB-435 = test system: MDA-MB-435
KM12 colon = test system: KM12 colon
A498 renal = test system: A498 renal

Structure (SMILES): O=C(c1ccccc1)C(CN1CCCCC1)c1ccccc1 (configuration not stated)
- GI50 (BT-549 breast): 1.6 µM
- TGI (BT-549 breast): 3.19 µM
- GI50 (MOLT-4 leukemia): 1.96 µM
- TGI (MOLT-4 leukemia): 5.09 µM
- GI50 (A549 NSCLC): 16.1 µM
- TGI (A549 NSCLC): 43.8 µM
- GI50 (UACC-62 melanoma): 1.98 µM
- TGI (UACC-62 melanoma): 4.8 µM
- GI50 (SNB-75 CNS): 3.46 µM
- TGI (SNB-75 CNS): 15.4 µM
- GI50 (HS 578T breast): 4.49 µM
- TGI (HS 578T breast): 33.2 µM
- GI50 (SNB-19 CNS): 9.6 µM
- TGI (SNB-19 CNS): 21.5 µM
- GI50 (U251 CNS): 1.48 µM
- TGI (U251 CNS): 3.24 µM
- GI50 (SN12C renal): 1.79 µM
- TGI (SN12C renal): 3.8 µM
- GI50 (SK-MEL-5 melanoma): 2.38 µM
- TGI (SK-MEL-5 melanoma): 6.74 µM
- GI50 (OVCAR-4 ovarian): 1.54 µM
- TGI (OVCAR-4 ovarian): 4.52 µM
- GI50 (NCI-H226 lung): 3.67 µM
- TGI (NCI-H226 lung): 14.8 µM
- GI50 (HCC-2998 colon): 3.97 µM
- TGI (HCC-2998 colon): 12.3 µM
- GI50 (OVCAR-3 ovarian): 1.78 µM
- TGI (OVCAR-3 ovarian): 3.25 µM
- GI50 (SK-MEL-2 melanoma): 2.85 µM
- TGI (SK-MEL-2 melanoma): 8.73 µM
- GI50 (SF-268 CNS): 3.98 µM
- TGI (SF-268 CNS): 16.1 µM
- GI50 (HCT-15 colon): 0.599 µM
- TGI (HCT-15 colon): 2.06 µM
- GI50 (CAKI-1 renal): 1.08 µM
- TGI (CAKI-1 renal): 2.45 µM
- GI50 (RPMI-8226 leukemia): 0.539 µM
- TGI (RPMI-8226 leukemia): 2.88 µM
- GI50 (EKVX NSCLC): 3.5 µM
- TGI (EKVX NSCLC): 16.7 µM
- GI50 (SK-MEL-28 melanoma): 3.25 µM
- TGI (SK-MEL-28 melanoma): 11.4 µM
- GI50 (MDA-MB-231 breast): 1.82 µM
- TGI (MDA-MB-231 breast): 4.37 µM
- GI50 (COLO 205 colon): 1.57 µM
- TGI (COLO 205 colon): 3.14 µM
- GI50 (HCT-116 colon): 1.13 µM
- TGI (HCT-116 colon): 2.46 µM
- GI50 (M14 melanoma): 0.865 µM
- TGI (M14 melanoma): 2.63 µM
- GI50 (HT29 colon): 0.892 µM
- TGI (HT29 colon): 5.67 µM
- GI50 (NCI-H23 lung): 1.65 µM
- TGI (NCI-H23 lung): 3.78 µM
- GI50 (SK-OV-3 ovarian): 7.27 µM
- TGI (SK-OV-3 ovarian): 24.8 µM
- GI50 (NCI-H522 lung): 0.316 µM
- TGI (NCI-H522 lung): 2.53 µM
- GI50 (786-0 renal): 1.91 µM
- TGI (786-0 renal): 3.45 µM
- GI50 (SR leukemia): 0.539 µM
- TGI (SR leukemia): 4.26 µM
- GI50 (DU-145 prostate): 0.681 µM
- TGI (DU-145 prostate): 2.05 µM
- GI50 (ACHN renal): 0.941 µM
- TGI (ACHN renal): 2.13 µM
- GI50 (K-562 leukemia): 0.712 µM
- TGI (K-562 leukemia): 14.2 µM
- GI50 (PC-3 prostate): 1.69 µM
- TGI (PC-3 prostate): 3.83 µM
- GI50 (UO-31 renal): 1.58 µM
- TGI (UO-31 renal): 3.07 µM
- GI50 (IGROV1 ovarian): 1.5 µM
- TGI (IGROV1 ovarian): 3.34 µM
- GI50 (OVCAR-8 ovarian): 1.7 µM
- TGI (OVCAR-8 ovarian): 4.36 µM
- GI50 (MCF7 breast): 2.81 µM
- TGI (MCF7 breast): 37.8 µM
- GI50 (HL-60(TB) leukemia): 1.42 µM
- TGI (HL-60(TB) leukemia): 3.86 µM
- GI50 (OVCAR-5 ovarian): 2.67 µM
- TGI (OVCAR-5 ovarian): 5.43 µM
- GI50 (SF-295 CNS): 4.85 µM
- TGI (SF-295 CNS): 17.5 µM
- GI50 (HOP-62 NSCLC): 2.03 µM
- TGI (HOP-62 NSCLC): 5.9 µM
- GI50 (UACC-257 melanoma): 1.73 µM
- TGI (UACC-257 melanoma): 4.06 µM
- GI50 (NCI-H460 lung): 10.2 µM
- TGI (NCI-H460 lung): 26.1 µM
- GI50 (NCI/ADR-RES ovarian): 1.27 µM
- TGI (NCI/ADR-RES ovarian): 2.9 µM
- GI50 (HOP-92 NSCLC): 1.16 µM
- TGI (HOP-92 NSCLC): 3.88 µM
- GI50 (SF-539 CNS): 1.96 µM
- TGI (SF-539 CNS): 3.94 µM
- GI50 (CCRF-CEM leukemia): 0.301 µM
- TGI (CCRF-CEM leukemia): 2.34 µM
- GI50 (TK-10 renal): 2.92 µM
- TGI (TK-10 renal): 10.2 µM
- GI50 (LOX IMVI melanoma): 0.478 µM
- TGI (LOX IMVI melanoma): 1.7 µM
- GI50 (RXF 393 renal): 1.42 µM
- TGI (RXF 393 renal): 2.74 µM
- GI50 (SW-620 colon): 0.583 µM
- TGI (SW-620 colon): 2.17 µM
- GI50 (MALME-3M melanoma): 1.44 µM
- TGI (MALME-3M melanoma): 3.35 µM
- GI50 (MDA-MB-435): 1.67 µM
- TGI (MDA-MB-435): 4.19 µM
- GI50 (KM12 colon): 3.75 µM
- TGI (KM12 colon): 13.8 µM
- GI50 (A498 renal): 9.33 µM
- TGI (A498 renal): 22 µM

Structure (SMILES): Fc1ccc2c(c1)c(-c1nc(-c3c[nH]c4ncccc34)cs1)cn2CCCCN1CCCCC1
- GI50 (A549 NSCLC): 1.77 µM
- TGI (A549 NSCLC): 3.31 µM
- GI50 (OVCAR-3 ovarian): 1.75 µM
- TGI (OVCAR-3 ovarian): 3.2 µM
- GI50 (SF-268 CNS): 1.63 µM
- TGI (SF-268 CNS): 3.22 µM
- GI50 (SK-MEL-28 melanoma): 1.78 µM
- TGI (SK-MEL-28 melanoma): 3.32 µM
- GI50 (MDA-MB-231 breast): 1.61 µM
- TGI (MDA-MB-231 breast): 3.04 µM
- GI50 (SK-OV-3 ovarian): 1.72 µM
- TGI (SK-OV-3 ovarian): 3.14 µM
- GI50 (786-0 renal): 1.62 µM
- TGI (786-0 renal): 3.07 µM
- GI50 (DU-145 prostate): 1.76 µM
- TGI (DU-145 prostate): 3.21 µM
- GI50 (ACHN renal): 1.67 µM
- TGI (ACHN renal): 3.1 µM
- GI50 (PC-3 prostate): 1.49 µM
- TGI (PC-3 prostate): 2.89 µM
- GI50 (UO-31 renal): 1.23 µM
- TGI (UO-31 renal): 2.57 µM
- GI50 (HOP-62 NSCLC): 1.53 µM
- TGI (HOP-62 NSCLC): 3.01 µM
- GI50 (UACC-257 melanoma): 1.76 µM
- TGI (UACC-257 melanoma): 3.33 µM
- GI50 (NCI-H460 lung): 1.81 µM
- TGI (NCI-H460 lung): 3.47 µM
- GI50 (HOP-92 NSCLC): 1.16 µM
- TGI (HOP-92 NSCLC): 2.48 µM
- GI50 (SF-539 CNS): 1.61 µM
- TGI (SF-539 CNS): 3.02 µM
- GI50 (TK-10 renal): 2.3 µM
- TGI (TK-10 renal): 3.89 µM
- GI50 (SW-620 colon): 1.74 µM
- TGI (SW-620 colon): 3.24 µM
- GI50 (A498 renal): 1.51 µM
- TGI (A498 renal): 3.05 µM
